Source: patent publication US7973024B2, “24-sulfoximine vitamin D3 compounds” (Cyctochroma Inc., priority 2002, dated 2011)

How the values were obtained:
Format in all cases: cell-based
SCC-25 cells = test: [3H]-thymidine proliferation assay with SCC-25 cells; settings: together with calcitriol, three days, [3H]-thymidine 6 h
Procedure: 1. Preparation of Cell Suspension • When SCC-25 cells were 70-80% confluent, aspirated media. Washed the cells with 1×PBS. Trypsinized with trypsin-EDTA from the plate, collected cells from the tissue culture flask, centrifuged (500×g, 5 min) and resuspended in media.
2. Cell Plating. • Counted the cells and adjusted the cell density to 10,000/ml. Added 200 μl per well in a 96 well plate. Incubated plate for 24 h at 37° C. in a humidified atmosphere plus 5% CO2. Aspirated used media and replaced with 150 μl per well with media.
3. Compound Addition. • Added 25 μl of 1α,25(OH)2D3 (final concentration 10^−6M, 10^−7 M, 10^−8 M, M, 10^−10 M, 10^−11 M) into each designated well. Added 25 μl of substrate (final concentration 10^−7 M, 5×10^−8 M, 10^−8 M or 10^−9 M) into each designated well. Incubated plates for 3 days at 37° C. in a humidified atmosphere plus 5% CO2.
4. ^3H-Thymidine Incorporation. • Added ^3H-thymidine at 0.02 μCi per well and incubated at 37° C. in a humidified atmosphere plus 5% CO2 for 6 h.
(§1) 5. Plate Harvesting. • Aspirated all media and washed cells with 1×PBS. Trypsinized cells for 30 min at 37° C. in a humidified atmosphere plus 5% CO2. Harvested cells onto a 96 well filter plate (Millipore) using a Tomtec Cell Harvestor, according to manufacturers instructions.
(§2) 6. Scintillation Counting. • Added 25 μl of scintillation fluid per well. Counted the plate using a scintillation counter.

MCF-7 cells = test: [3H]-thymidine proliferation assay with MCF-7 cells; settings: together with calcitriol, three days, [3H]-thymidine 6 h
Procedure: 1. Preparation of Cell Suspension • When MCF-7 cells were 70-80% confluent, aspirated growth media. Washed the cells with 1×PBS. Trypsinized with trypsin-EDTA from the plate, collected cells from the tissue culture flask, centrifuged (500×g, 5 min) and resuspended in growth media.
2. Cell Plating. • Counted the cells and adjusted the cell density to 25,000/ml. Added 200 μl per well in a 96 well plate. Incubated plate for 24 h at 37° C. in a humidified atmosphere plus 5% CO2. Aspirated used media and replaced with 150 μl per well with proliferation media.
3. Substrate Addition. • Added 25 μl of 1α,25(OH)2D3 (final concentration 10^−6 M, 10^−7 M, 10^−8 M, 10^−9 M, 10^−10 M, 10^−11 M) into each designated well. Added 25 μl of substrate (final concentration 10^−7 M, 5×10^−8 M, 10^−8 M or 10^−9 M) into each designated well. Incubated plates for 3 days at 37° C. in a humidified atmosphere plus 5% CO2.
4. ^3H-Thymidine incorporation. • Added ^3H-thymidine at 0.02 μCi per well and incubated at 37° C. in a humidified atmosphere plus 5% CO2 for 6 h.
as §1, §2

CYP24 = biological target: T1, CYP24 (Homo sapiens, UniProt Q07973); test: CYP24 enzyme assay (induced HPK1A-ras cells); settings: HPK1A-ras cells induced with 1,25(OH)2D3; [3H]-1,25(OH)2D3 substrate, 2 hour
T1 construct: expressed in transfected cells
T1 sequence (Q07973 36-514): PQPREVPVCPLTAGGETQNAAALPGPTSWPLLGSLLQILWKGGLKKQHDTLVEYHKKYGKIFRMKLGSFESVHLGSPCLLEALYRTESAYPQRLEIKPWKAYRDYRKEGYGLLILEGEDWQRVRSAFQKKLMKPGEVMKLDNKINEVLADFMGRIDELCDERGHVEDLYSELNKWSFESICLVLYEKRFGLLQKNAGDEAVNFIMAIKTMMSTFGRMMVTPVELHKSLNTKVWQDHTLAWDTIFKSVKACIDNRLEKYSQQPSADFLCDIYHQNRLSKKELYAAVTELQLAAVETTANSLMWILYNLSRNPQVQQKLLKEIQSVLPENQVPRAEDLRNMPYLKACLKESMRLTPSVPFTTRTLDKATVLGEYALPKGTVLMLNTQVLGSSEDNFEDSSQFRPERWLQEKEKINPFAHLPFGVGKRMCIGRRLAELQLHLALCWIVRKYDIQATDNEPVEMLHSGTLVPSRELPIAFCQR
Procedure: 1.25(OH)2D3 10^−5 M (Sigma, St. Louis, Mo.);
Preparation of 10^−5 M working solution is as follows:
Dissolve 1 mg of 1,25(OH)2D3 into 480 μl of isopropanol to make 5×10^−3 M stock solution. Store at −70° C. until needed. Aliquot 1 μl of 1.25(OH)2D3 5×10^−3 M stock solution to 499 μl of isopropanol to make 1.25(OH)2D3 10^−5 working solution. Store at −20° C. until needed. […] Induction of HPKIA-ras cells (The day before assay) • When the HPK1A-ras cells were 80-90% confluent, added 1 μL 10^−5 M 1.25(OH)2D3 to 1 mL medium in the plate (final concentration is 10^−8 M). • 2. Preparation of cell suspension • After 18 to 20 hours induction, removed the medium and washed the cell twice with PBS. Then tripsinized the cells from plate, centrifuged (2,000 rpm, 5 min) and suspended cells pellet in DMEM medium+1% BSA. • Counted the cells and adjusted cells density to 250,000/150 μL, added 150 μL cell suspension to each well in 48-well plate (including 3 wells as a no cell control, and 3 well cells without drug or inhibitor as controls). • 3. […] Kept the plate in 37° C. for 10 min. • 4. Preparation of substrate • For each ml required, added 972 μl of DMEM+1% BSA medium, 20 μl of 3H-1,25(OH)2D3, and 8 μl of 100 nM DPPD to a tube and vortexed. • 5. Incubation • Added 25 μL substrate to each well, incubated the plate at 37° C. for 2 hour. • Added 25 μL substrate to counting plate (2 well) as a total count. • 6. Lipid Extraction and Counting • Added 500 μL methanol to each well to stop the reaction, transferred them to tube. • Added 250 μL dichloromethane and vortex. • Added 250 μL dichloromethane and […] saturated KCI, and vortex. • Centrifuged at 4000 rpm for 5 min. • Transferred 100 μL of aqueous phase (upper phase) to counting plastic counting plate. Added 600 μL of scintillation fluid to each well. Counted the plate in scintillation counter. • 7. Calculation Enzyme Activity • CPM of cell control after subtraction of CPM of non-cell control (NCC) was as 100% enzyme activity.
• Dilution of test compounds • Stock 10^−3 M

SMILES	inhibition of proliferation of SCC-25 cells (SCC-25 cells)	inhibition of proliferation of MCF-7 cells (MCF-7 cells)	IC50 (CYP24)
C=C1/C(=C\C=C2/CCC[C@]3(C)[C@@H]([C@H](C)CCS(=O)(=NC)c4ccccc4)CC[C@@H]23)C[C@@H](O)C[C@@H]1O (single isomer, unassigned) [I(e)]	act to inhibit the proliferation	act to inhibit the proliferation	66 nM
C[C@H](CCS(=N)(=O)c1ccccc1)[C@H]1CC[C@H]2/C(=C/C=C3C[C@@H](O)C[C@H](O)C3)CCC[C@]12C (single isomer, unassigned) [I(i), 24-Phenyl Sulfoximine 19-Nor-Vitamin-D3]	act to inhibit the proliferation	act to inhibit the proliferation	
C=C1/C(=C\C=C2/CCC[C@]3(C)[C@@H]([C@H](C)CCS(=O)(=NC)c4ccccc4)CC[C@@H]23)C[C@@H](O)C[C@@H]1O (single isomer, unassigned) [I(g)]	act to inhibit the proliferation	act to inhibit the proliferation	20 nM
C=C1/C(=C\C=C2/CCC[C@]3(C)[C@@H]([C@H](C)CCS(=N)(=O)c4ccccc4)CC[C@@H]23)C[C@@H](O)C[C@@H]1O (single isomer, unassigned) [I(a)]	act to inhibit the proliferation	act to inhibit the proliferation	5 nM
